Entries after “also recorded” stand apart in the source; their conditions may differ.
What was measured:
[1] = test system: allergic airway disease; assay: Allergic lung disease reversal model (A. niger spores, treatment of established disease); type: in vivo, mice
Description: FIG. 17A, Mice are treated intranasally with 400,000 Aspergillus niger conidia every other day. After two weeks A. niger conidia are administered with either DLPC or DLPC/PM-43I. Airway hyperresponsiveness is measured at week 2, 3, and 4. FIG. 17B, Airway hyperrepsonsiveness induced by acetylcholine is revered by treatment with PM-43I.
In separate experiments wild type C57BL/6 mice were challenged with the spores of A. niger for two weeks after which the inventors began to give PM-242H intranasally at 50 micrograms per dose at the time of continued fungal challenge for an additional two weeks (FIG. 13A).
(§1) Mice were challenged intranasally with a clinical isolate of 4×10^5 A. niger conidia every two days for a total of 8 challenges and treated with 50 μg of the indicated β-agonist, liposome vehicle (DLPC) and/or PM-242H (5 or 50 μg) intranasally as indicated and the allergic airway disease phenotype was determined according to previously described methods (Porter, P. et al. 2009).
(§2) Allergic airway disease was assessed as previously described (Porter, P. et al. 2009). Changes in respiratory system resistance (RRS) in response to intravenous acetylcholine challenge, bronchoalveolar lavage (BAL) fluid differential counts, and analysis of lung IL-4, IL-17A and IFN-γ producing cells by enzyme linked immunocell spot assay (ELISpot) were performed as previously described (Lee, S. H. et al. 2003; Polikepahad, S. et al. 2010).
Lungs were perfused of blood by cannulating the pulmonary artery and injecting ice cold PBS until lavage returning via the left atrium was clear. Lungs were then inflated via the trachea with 10% formalin at 25 cm water pressure and the tracheas were tied off prior to removal of the cardiopulmonary unit en bloc submerging in 10% formalin overnight. Fixed lungs were then divided into individual lobes that were then halved and embedded in paraffin. Lung sections were cut at 5 microns and stained with the periodic acid-Schiff (PAS) kit (395B; Sigma-Aldrich, St. Louis, Mo.).

[2] = test system: Stat5; assay: Selectivity: Stat5 phosphorylation in EGF-stimulated MDA-MB-468 cells; type: cell-based; conditions: serum starved MDA-MB-468 cells, 2 hr
Description: (§3) Compounds were screened at 5 μM for their ability to inhibit IL-4 stimulated phosphorylation of STAT6 in Beas-2B immortalized human airway cells. Cells were treated with prodrug for 2 hr and then stimulated with IL-4. After 30 min cells were lysed and pSTAT6 and total STAT6 were measured with western blots (FIG. 7). Without being bound by theory, the inhibition observed is consistent with compounds entering cells, being stripped of the POM groups, binding to the SH2 domain of STAT6, blocking binding to IL-4Rα and preventing phosphorylation of Tyr641. […] Compounds resulting in <10% residual phosphorylation were taken on to MTS cytotoxicity assays and dose response assays. (FIG. 8). The cyclic aromatic amides PM-63I, PM-80I, PM-81I, and PM-86I were very potent with IC50 values from 50-500 nM. […] With the exception of PM-43I, concentrations that inhibit STAT6 phosphorylation are 20-100 fold lower than those resulting in toxicity. STAT6 inhibitors were assayed for their ability to inhibit the phosphorylation of STAT 1, STAT 3, STAT 5, Akt, and FAK, all processes that depend on SH2 domain-phosphotyrosine interactions (Mandal, P. K. et al. 2011). Serum starved MDA-MB-468 breast cancer cells were treated with STAT6 inhibitors for 2 hr and then were stimulated with EGF (See FIGS. 9A and 9B).

[3] = Toxicity: weights of mice during challenge with different doses; type: in vivo; conditions: highest dose of 50 micrograms
Description: (§4) The issue of toxicity was addressed with the newer synthetic STAT6 peptidomimetic agents 86i and 43i in two ways. First, the inventors determined the effect of each inhibitor on asthma-related parameters in fungus-challenged mice. […] Second, the weights of mice were measured during challenge with the different doses of both STAT6 inhibitors.

[4] = target: T1, STAT6 (Homo sapiens, UniProt P42226); assay: Inhibition of IL-4 (and IL-13) stimulated phosphorylation of STAT6 in Beas-2B cells, western blot; type: cell-based; parameters: endogenous in cells; host or cells: Beas-2B immortalized human airway cells; conditions: dose response
T1 sequence (P42226 1-847): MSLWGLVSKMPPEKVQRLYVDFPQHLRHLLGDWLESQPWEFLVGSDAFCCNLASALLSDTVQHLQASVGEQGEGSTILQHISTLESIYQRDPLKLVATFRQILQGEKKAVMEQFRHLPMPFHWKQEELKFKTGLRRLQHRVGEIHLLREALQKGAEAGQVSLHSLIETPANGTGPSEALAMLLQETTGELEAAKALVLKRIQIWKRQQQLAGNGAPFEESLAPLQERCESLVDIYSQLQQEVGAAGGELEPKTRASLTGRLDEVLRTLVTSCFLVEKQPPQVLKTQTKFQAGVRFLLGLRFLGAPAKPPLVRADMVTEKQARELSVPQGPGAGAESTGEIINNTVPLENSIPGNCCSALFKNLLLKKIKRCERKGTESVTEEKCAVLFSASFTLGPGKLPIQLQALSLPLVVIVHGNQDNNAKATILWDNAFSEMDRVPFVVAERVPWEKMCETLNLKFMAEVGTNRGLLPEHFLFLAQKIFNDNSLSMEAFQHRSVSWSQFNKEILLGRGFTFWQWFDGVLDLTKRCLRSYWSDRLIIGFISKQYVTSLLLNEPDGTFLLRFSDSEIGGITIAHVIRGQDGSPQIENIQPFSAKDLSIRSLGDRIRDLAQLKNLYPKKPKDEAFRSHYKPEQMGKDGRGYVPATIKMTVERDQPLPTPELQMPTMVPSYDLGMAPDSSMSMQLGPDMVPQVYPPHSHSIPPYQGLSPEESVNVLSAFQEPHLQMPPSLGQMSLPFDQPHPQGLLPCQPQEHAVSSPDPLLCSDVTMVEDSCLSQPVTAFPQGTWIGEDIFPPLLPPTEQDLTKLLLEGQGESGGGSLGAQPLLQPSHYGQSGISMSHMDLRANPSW
Description: Compound PM-241H inhibited the phosphorylation of Tyr641 of STAT6 in Beas-2B cells stimulated with IL-4 and IL-13.
as §3
(§5) Cells or lungs were isolated and lysed in RIPA buffer (9806S; Cell Signaling, Danvers, Mass.), protein was quantified using BCA Protein Assay Reagent (23227; Thermo Fisher Scientific, Rockford, Ill.) and denatured in Laemmli sample buffer (161-0737; Bio-Rad, Hercules, Calif.) according to manufacturer's protocol. Proteins were separated on SDS-Page gels were hand-poured using a standard electrophoresis unit (Bio-Rad, Hecules, Calif.) and transferred to a membrane using iBlot Gel Transfer Device (IB 1001; Invitrogen, Grand Island, N.Y.). Membranes were blocked in 2% FBS PBST and probed for c-Src, p-c-Src, pErk1/2, Erk1/2, p STAT6, STAT6, pSTAT3, STAT3, pSTAT5, STAT5, Shp-1, and β-actin. Signal was detected with a ChemiDoc XRS+ system (BioRad; Hercules, Calif.).

[5] = test system: asthma-related parameters; assay: Dose effect on asthma-related parameters in fungus-challenged mice; type: in vivo; conditions: fungus-challenged mice
Description: as §4, §1, §2

[6] = test system: Th1, Th2, Th17 cells; assay: Th cell development: ovalbumin restimulation ELISpot of splenocytes from ovalbumin/alum immunized mice; type: in vivo
Description: The ability of PM-242H to inhibit the development of major T helper effector subsets (Th1, Th2, Th17 cells) at the time of allergen exposure was tested. For these experiments, mice were immunized with chicken egg ovalbumin precipitated in alum over two weeks and then challenged intranasally with the spores of the fungus Aspergillus niger (AN) together with alum-free ovalbumin. The inventors prepared single cell suspensions of splenocytes from these same mice and stimulated the T cells in these preparations with ovalbumin to determine the precise number of antigen-specific Th1, Th2 and Th17 cells that developed. […] In summary, treatment of mice with PM-242H suppressed the development of Th2 and Th17, but not Th1 cells. These findings are entirely consistent with the known properties of STAT6, but in addition indicate that STAT6 may be involved with the production of Th17 cells.
(§6) Mice were sensitized to ovalbumin precipitated in alum as described in FIG. 3 (Corry, D. B. et al. 1996). In brief, mice were vaccinated intraperitoneally weekly with ovalbumin/alum together with PM-242H (50 or 250 μg) or liposome vehicle (DLPC) for 2 consecutive weeks and allowed to rest for 1 week. Mice were then intranasally challenged with ovalbumin (1 mg/mL in PBS; A5503, Sigma-Aldrich) and 4×10^5A. niger conidia for 5 consecutive days after which the allergic airway disease phenotype was assessed. Randomization was not used to assign mice to specific treatment groups. Investigators were blind as to mouse genotype and treatment during data collection.
Splenocytes from the indicated challenge groups of naïve and sensitized mice were assessed for antigen-specific recall cytokine responses by ELISpot. In brief, spleens were removed post mortem, de-aggregated by pressing through 40 μm nylon mesh and the red blood cells were removed from resulting cell suspension by hypotonic lysis. The splenocytes were then washed twice and cultured in flat-bottom wells of 96-well microtiter plates that were pre-coated with capture antibodies to IL-4, interferon gamma (IFN-γ) and IL-17A. Splenocytes were added in duplicate cultures of 0.5×10^6 cells/well that were then diluted serially two-fold to 0.015×10^6 cells/well. Cells were cultured in the presence of media or whole ovalbumin (1 mg/mL) overnight and plates were developed as previously described (Kheradmand, F. et al. 2002).

[7] = test system: allergic lung disease; assay: Allergic lung disease induction model (ovalbumin/alum immunization, ovalbumin and A. niger challenge); type: in vivo, mice
Description: The same model as described in part E was used to determine the effect of PH-242H on the induction of allergic lung disease. Mice that were immunized with ovalbumin and challenged intranasally with ovalbumin and A. niger spores developed AHR as determined by a shift to the left of the acetylcholine (Ach) dose response curve as compared to PBS challenged animals. Enzyme linked immunocell spot (ELISpot) assays were then performed on whole lung homogenates, assaying for IL-4, gamma interferon (IFN-γ) and IL-17A-secreting cells.
as §6, §2

[8] = test system: STAT6; assay: STAT6 phosphorylation in vitro and in vivo (summary statement)
Source text: The synthesized PM-242H compound was advanced to in vivo studies. PM-242H was formulated as simple dilauroylphosphatidyl-choline liposomes and applied by intranasal administration. […] These findings with PM-242H in vivo and in vitro are entirely consistent with and explained by its ability to inhibit selectively STAT6.
as §5

[9] = A. niger conidia, DLPC/PM-43I after two weeks
[10] = intranasal 50 micrograms per dose during established disease
[11] = splenocytes restimulated with ovalbumin
[12] = ELISpot on whole lung homogenates

SMILES: CC(=CC(=O)NC1CCCCN(CC(=O)N(C)c2ccccc2)C1=O)c1ccc(C(F)(F)P(=O)(OCOC(=O)C(C)(C)C)OCOC(=O)C(C)(C)C)cc1 (stereo not shown) [PM-43I]
- established allergic airway disease ([1]; A. niger conidia every other day, DLPC/PM-43I after two weeks): reverses established allergic airway disease
- immune cell recruitment [1, 9]: does not significantly affect
- lung immune response to A. niger infection [1, 9]: does in inhibit
- airway hyperresponsiveness induced by acetylcholine ([1]; A. niger conidia, DLPC/PM-43I after two weeks, weeks 2, 3, 4): revered
- cross reactivity with Stat5 [2]: significant cross reactivity
- weight gain [3]: reduction in weight gain
- IC50 [4]: 1000 to 2500 nM
- maximally effective dose [5]: 0.5 micrograms

SMILES: CC(C)(C)C(=O)OCOP(=O)(OCOC(=O)C(C)(C)C)C(F)(F)c1ccc(/C=C/C(=O)NC(C(=O)N2CCCC2C(=O)N(c2ccccc2)c2ccc(-c3ccccc3)cc2)C(C)(C)C)cc1 (stereo not shown) [PM-242H]
- airway hyperresponsiveness ([1]; C57BL/6 mice, intranasal 50 micrograms per dose during established disease): abrogation of airway hyperresponsiveness; also recorded: promotes recovery from airway hyperresponsiveness
- mucus production ([1]; FIGS. 13A-F legend): inhibition of mucus production
- goblet cell metaplasia (periodic acid-Schiff staining) [1, 10]: reduction in goblet cell metaplasia
- lung and airway inflammation [1, 10]: did not, however, attenuate
- number of airway eosinophils [1, 10]: increased
- number of lung IL-17A-secreting cells [1, 10]: increased
- effect on Th cells ([6]; FIGS. 11A-H legend): inhibits Th cells
- Th1 (IFN-γ)-secreting cells [6, 11]: unaffected
- development of Th2 (IL-4-producing) T cells [6, 11]: failed to develop
- development of Th17 (IL-17A-producing) T cells [6, 11]: failed to develop
- IL-17A-secreting cells in lungs [7, 12]: significantly suppressed
- ratio between IL-4 and IFN-γ-secreting cells in lungs [7, 12]: significantly suppressed
- development of allergic lung disease ([7]; FIG. 12 legend): blocks the development of allergic lung disease
- STAT6 phosphorylation both in vitro and in vivo [8]: inhibit

— patent publication US10385080B2, “STAT6 inhibitors” (Board of Regents, The University of Texas System, priority 2013, dated 2019)
